# Measurements reported in ChEMBL document CHEMBL5137095, “N-Benzyl Benzamide Derivatives as Selective Sub-Nanomolar Butyrylcholinesterase Inhibitors for Possible Treatment in Advanced Alzheimer's Disease” (J Med Chem, 2022).
# Assays:
# [1] = molecular target: Cholinesterase (Equus caballus, UniProt P81908); test: Inhibition of horse serum BChE using acetylthiocholine iodide or butyrylthiocholine iodide as substrate preincubated for 5 mins followed by substrate addition by Ellman's method
# [2] = molecular target: T1, Cholinesterase (Homo sapiens, UniProt P06276); test: Inhibition of human BChE using acetylthiocholine iodide or butyrylthiocholine iodide as substrate preincubated for 5 mins followed by substrate addition by Ellman's method
# T1 sequence (P06276 whole entry): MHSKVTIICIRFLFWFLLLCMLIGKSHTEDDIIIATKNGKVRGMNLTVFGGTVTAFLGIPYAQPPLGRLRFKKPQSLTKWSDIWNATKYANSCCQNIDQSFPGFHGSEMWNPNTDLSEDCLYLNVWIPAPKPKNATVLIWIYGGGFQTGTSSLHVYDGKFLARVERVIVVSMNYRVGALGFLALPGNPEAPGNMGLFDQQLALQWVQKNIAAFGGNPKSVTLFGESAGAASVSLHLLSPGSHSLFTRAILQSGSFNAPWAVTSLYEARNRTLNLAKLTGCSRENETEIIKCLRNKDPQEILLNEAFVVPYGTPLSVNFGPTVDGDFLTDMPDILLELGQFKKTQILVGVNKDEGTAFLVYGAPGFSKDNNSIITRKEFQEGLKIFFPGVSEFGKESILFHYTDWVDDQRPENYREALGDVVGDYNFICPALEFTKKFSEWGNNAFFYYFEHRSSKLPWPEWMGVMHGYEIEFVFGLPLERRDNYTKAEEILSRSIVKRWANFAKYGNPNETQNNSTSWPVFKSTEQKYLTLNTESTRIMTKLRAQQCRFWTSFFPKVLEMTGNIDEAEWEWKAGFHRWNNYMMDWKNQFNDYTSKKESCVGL
# [3] = n-octanol-water partition coefficient, log P of the compound by HPLC analysis; format: physicochemical
# [4] = system: BV-2; test: Cytotoxicity against mouse BV-2 cells assessed as reduction in cell viability at 10 uM by MTT assay; format: toxicity, cell-based; conditions: bv-2, 10 µM
# [5] = Permeability of compound incubated for 18 hrs by PAMPA-BBB assay; format: ADME; conditions: read-out: permeability
# [6] = system: HT-22; test: Cytotoxicity against mouse HT-22 cells assessed as reduction in cell viability at 10 uM by MTT assay; format: toxicity, cell-based; conditions: ht-22, 10 µM
# [7] = system: PC-12; test: Cytotoxicity against rat PC-12 cells assessed as reduction in cell viability at 10 uM by MTT assay; format: toxicity, cell-based; conditions: pc-12, 10 µM
# [8] = system: SH-SY5Y; test: Cytotoxicity against human SH-SY5Y cells assessed as reduction in cell viability at 10 uM by MTT assay; format: toxicity, cell-based
# [9] = Cytotoxicity against mouse BV-2 cells assessed as cell survival rate at 10 uM by MTT assay; format: toxicity, cell-based; conditions: read-out: Activity
# [10] = Cytotoxicity against mouse HT-22 cells assessed as cell survival rate at 10 uM by MTT assay; format: toxicity, cell-based; conditions: read-out: Activity
# [11] = Cytotoxicity against rat PC-12 cells assessed as cell survival rate at 10 uM by MTT assay; format: toxicity, cell-based; conditions: read-out: Activity
# [12] = Cytotoxicity against human SH-SY5Y cells assessed as cell survival rate at 10 uM by MTT assay; format: toxicity, cell-based; conditions: read-out: Activity
# [13] = system: PC-12; test: Neuroprotective activity against H2O2-induced cell damage in rat PC-12 cells assessed as survival rate at 5 to 10 uM pretreated for 2 hrs followed by H2O2 addition and measured after 24 hrs by MTT assay; format: functional; conditions: dose 5-10 µM, time 26 hrs
# [14] = Inhibition of human BChE assessed as inhibition constant
# [15] = molecular target: T1, Cholinesterase; test: Inhibition of human BChE assessed as inhibition constant
# Chain of Cholinesterase (Equus caballus, UniProt P81908) (P81908 whole entry): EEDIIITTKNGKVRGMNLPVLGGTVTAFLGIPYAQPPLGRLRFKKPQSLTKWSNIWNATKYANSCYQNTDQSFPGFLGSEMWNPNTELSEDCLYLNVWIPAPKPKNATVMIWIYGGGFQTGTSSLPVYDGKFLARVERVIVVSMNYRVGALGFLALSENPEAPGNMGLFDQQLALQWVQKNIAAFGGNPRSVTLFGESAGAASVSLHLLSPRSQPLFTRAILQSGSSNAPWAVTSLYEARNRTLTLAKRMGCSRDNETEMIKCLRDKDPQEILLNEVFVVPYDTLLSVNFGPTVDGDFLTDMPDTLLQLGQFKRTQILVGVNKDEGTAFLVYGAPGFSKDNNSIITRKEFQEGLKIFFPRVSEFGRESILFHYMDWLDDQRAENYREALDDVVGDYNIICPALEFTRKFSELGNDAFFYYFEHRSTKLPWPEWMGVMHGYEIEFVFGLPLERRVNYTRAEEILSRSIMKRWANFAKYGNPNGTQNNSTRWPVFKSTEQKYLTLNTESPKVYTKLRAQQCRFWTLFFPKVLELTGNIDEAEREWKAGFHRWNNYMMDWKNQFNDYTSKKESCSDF
compound,measurement,setting,value
CCN(CC)Cc1ccccc1CNC(=O)c1ccc(Br)c(NC(=O)c2ccc(F)cc2)c1,IC50,[1],2.42 nM
same,IC50,[2],2.58 nM
CCN(CC)Cc1ccccc1CNC(=O)c1cccc(NC(=O)C2CCCCC2)c1,IC50,[1],7.9 nM
same,IC50,[2],3.71 nM
CCN(CC)Cc1ccccc1CNC(=O)c1cccc(NC(=O)c2ccc(F)cc2)c1Br,IC50,[1],14.4 nM
same,IC50,[2],1840 nM
CCN(CC)Cc1ccccc1CNC(=O)c1ccc(NC(=O)c2ccc(F)cc2)cc1,IC50,[1],4.99 nM
same,IC50,[2],5.29 nM
CCN(CC)Cc1ccccc1CNC(=O)c1cc(NC(=O)c2ccc(F)cc2)cc(C(F)(F)F)c1,IC50,[1],1.35 nM
same,IC50,[2],8.67 nM
CCN(CC)Cc1ccccc1CNC(=O)c1cccc(OC(=O)c2cccs2)c1,IC50,[1],158 nM
same,IC50,[2],132 nM
Cc1ccccc1NC(=O)c1cccc(NC(=O)c2cccs2)c1,IC50,[1],12900 nM
same,IC50,[2],11100 nM
CN(C)Cc1ccccc1NC(=O)c1cccc(NC(=O)c2cccs2)c1,IC50,[2],1240 nM
CCN(CC)Cc1ccccc1CNC(=O)c1cccc(NC(=O)c2ccc(Br)cc2)c1,IC50,[1],0.087 nM
same,IC50,[2],0.13 nM
same,logP,[3],2.73
CCN(CC)Cc1ccccc1CNC(=O)c1cc(NC(=O)c2ccc(F)cc2)ccc1Br,IC50,[1],3.53 nM
same,IC50,[2],16.1 nM
CCN(CC)Cc1ccccc1CNC(=O)c1cc(NC(=O)c2ccc(F)cc2)cc(OC)c1,IC50,[1],0.82 nM
same,IC50,[2],136 nM
CCN(CC)Cc1ccccc1CNC(=O)c1cc(Cl)cc(NC(=O)c2ccc(F)cc2)c1,Activity,[4],Non-Toxic
same,IC50,[1],0.16 nM
same,IC50,[2],0.22 nM
same,logP,[3],1.11
same,Papp at 18 h,[5],7.54 ×10⁻⁶ cm/s
same,Activity,[6],Non-Toxic
same,Activity,[7],Non-Toxic
same,Activity,[8],Non-Toxic
same,viability at 10 µM,[9],> 70%
same,viability at 10 µM,[10],> 70%
same,viability at 10 µM,[11],> 70%
same,viability at 10 µM,[12],> 70%
CCN(CC)Cc1ccccc1CNC(=O)c1cccc(NC(=O)c2ccc(F)cc2)c1C,IC50,[1],0.14 nM
same,IC50,[2],0.26 nM
same,logP,[3],1.02
same,Papp at 18 h,[5],11.4 ×10⁻⁶ cm/s
CCN(CC)Cc1ccccc1CNC(=O)c1cccc(NC(=O)c2cccs2)c1,Activity,[4],Non-Toxic
same,IC50,[2],0.35 nM
same,logP,[3],2.11
same,Papp at 18 h,[5],19 ×10⁻⁶ cm/s
same,Activity,[6],Non-Toxic
same,Activity,[7],Non-Toxic
same,Activity,[8],Non-Toxic
same,viability at 10 µM,[9],> 70%
same,viability at 10 µM,[10],> 70%
same,viability at 10 µM,[11],> 70%
same,viability at 10 µM,[12],> 70%
CCN(CC)Cc1ccccc1NC(=O)c1cccc(NC(=O)c2cccs2)c1,IC50,[2],540 nM
CCN(CC)Cc1ccccc1CNC(=O)c1cc(NC(=O)c2ccc(F)cc2)cc([N+](=O)[O-])c1,Activity,[4],Non-Toxic
same,IC50,[1],1.27 nM
same,IC50,[2],1.04 nM
same,Activity,[6],Non-Toxic
same,Activity,[7],Non-Toxic
same,Activity,[8],Non-Toxic
same,viability at 10 µM,[9],> 70%
same,viability at 10 µM,[10],> 70%
same,viability at 10 µM,[11],> 70%
same,viability at 10 µM,[12],> 70%
CCN(CC)Cc1cccc(CNC(=O)c2cccc(NC(=O)c3cccs3)c2)c1,IC50,[1],55000 nM
same,IC50,[2],48900 nM
CCCN(CCC)Cc1ccccc1NC(=O)c1cccc(NC(=O)c2cccs2)c1,IC50,[1],120 nM
same,IC50,[2],870 nM
CCN(CC)Cc1ccccc1CNC(=O)c1cc(C#N)cc(NC(=O)c2ccc(F)cc2)c1,IC50,[1],1.51 nM
same,IC50,[2],3.16 nM
CCN(CC)Cc1ccccc1CNC(=O)c1cccc(NC(=O)c2ccc(OC)cc2)c1,Activity,[4],Non-Toxic
same,Activity,[6],Non-Toxic
same,Activity,[7],Non-Toxic
same,Activity,[8],Non-Toxic
same,viability at 10 µM,[9],> 70%
same,viability at 10 µM,[10],> 70%
same,viability at 10 µM,[11],> 70%
same,viability at 10 µM,[12],> 70%
CCN(CC)Cc1ccccc1CNC(=O)c1cccc(NS(=O)(=O)c2cccs2)c1,IC50,[1],350 nM
same,IC50,[2],2610 nM
CCN(CC)Cc1ccccc1CNC(=O)c1cccc(C(=O)Nc2cccs2)c1,IC50,[1],1.19 nM
same,IC50,[2],12.9 nM
CCN(CC)Cc1ccccc1CNC(=O)c1cccc(NC(=O)c2cccc(F)c2)c1,IC50,[2],3.11 nM
CCN(CC)Cc1ccccc1CNC(=O)c1cc(F)cc(NC(=O)c2ccc(F)cc2)c1,IC50,[1],0.55 nM
same,IC50,[2],0.61 nM
same,logP,[3],1.36
CCN(CC)Cc1ccccc1CNC(=O)c1cccc(NC(=O)c2ccccc2)c1,IC50,[1],0.96 nM
CCN(CC)Cc1ccccc1CNC(=O)c1cccc(NC(=O)c2ccc(C)cc2)c1,Activity,[4],Non-Toxic
same,IC50,[1],77.3 nM
same,IC50,[2],45 nM
same,Activity,[6],Non-Toxic
same,Activity,[7],Non-Toxic
same,Activity,[8],Non-Toxic
same,viability at 10 µM,[9],> 70%
same,viability at 10 µM,[10],> 70%
same,viability at 10 µM,[11],> 70%
same,viability at 10 µM,[12],> 70%
CCN(CC)Cc1ccc(CNC(=O)c2cccc(NC(=O)c3cccs3)c2)cc1,IC50,[1],5950 nM
same,IC50,[2],3440 nM
CCN(CC)Cc1ccccc1CNC(=O)c1cccc(NC(=O)c2ccccc2F)c1,IC50,[1],6.54 nM
same,IC50,[2],5.04 nM
CCN(CC)Cc1ccccc1CNC(=O)c1cccc(NC(=O)c2ccc(Cl)cc2)c1,IC50,[1],1.02 nM
same,IC50,[2],0.76 nM
same,logP,[3],2.67
same,Papp at 18 h,[5],6.02 ×10⁻⁶ cm/s
CCN(CC)Cc1ccccc1CNC(=O)c1ccc(C)c(NC(=O)c2ccc(F)cc2)c1,IC50,[1],0.38 nM
same,IC50,[2],135 nM
O=C(NCc1ccccc1)c1cccc(NC(=O)c2cccs2)c1,IC50,[1],97300 nM
same,IC50,[2],31300 nM
CCN(CC)Cc1ccccc1CNC(=O)c1cccc(NC(=O)c2ccc(I)cc2)c1,IC50,[1],0.34 nM
same,IC50,[2],0.11 nM
same,Papp at 18 h,[5],10.1 ×10⁻⁶ cm/s
CCN(CC)Cc1ccccc1CNC(=O)c1cccc(NC(=O)c2c(F)c(F)c(F)c(F)c2F)c1,IC50,[1],0.48 nM
same,IC50,[2],1.28 nM
CCN(CC)Cc1ccccc1CNC(=O)c1ccccc1NC(=O)c1ccc(F)cc1,IC50,[1],187 nM
same,IC50,[2],115 nM
CCN(CC)Cc1ccccc1CNC(=O)c1cccc(NC(=O)c2ccco2)c1,Activity,[4],Non-Toxic
same,IC50,[2],0.26 nM
same,Papp at 18 h,[5],6.89 ×10⁻⁶ cm/s
same,Activity,[6],Non-Toxic
same,Activity,[7],Non-Toxic
same,Activity,[8],Non-Toxic
same,viability at 10 µM,[9],> 70%
same,viability at 10 µM,[10],> 70%
same,viability at 10 µM,[11],> 70%
same,viability at 10 µM,[12],> 70%
CCCN(CCC)Cc1ccccc1CNC(=O)c1cccc(NC(=O)c2cccs2)c1,Activity,[4],Non-Toxic
same,IC50,[2],0.67 nM
same,logP,[3],1.02
same,Papp at 18 h,[5],8.69 ×10⁻⁶ cm/s
same,Activity,[6],Non-Toxic
same,Activity,[7],Non-Toxic
same,Activity,[8],Non-Toxic
same,viability at 10 µM,[9],> 70%
same,viability at 10 µM,[10],> 70%
same,viability at 10 µM,[11],> 70%
same,viability at 10 µM,[12],> 70%
same,Activity,[13],61.7%
CCN(CC)Cc1ccccc1CNC(=O)c1cc(NC(=O)c2ccc(F)cc2)ccc1C,Activity,[4],Non-Toxic
same,IC50,[1],1.35 nM
same,IC50,[2],2.71 nM
same,Activity,[6],Non-Toxic
same,Activity,[7],Non-Toxic
same,Activity,[8],Non-Toxic
same,viability at 10 µM,[9],> 70%
same,viability at 10 µM,[10],> 70%
same,viability at 10 µM,[11],> 70%
same,viability at 10 µM,[12],> 70%
CCN(CC)C(C)CN1c2ccccc2Sc2ccccc21 (stereo unspecified) [ETHOPROPAZINE],Ki,[14],20 nM
Cc1ccc2c(c1)sc(-c1ccc(N(C)C)cc1)[n+]2C [THIOFLAVIN T],Ki,[15],800 nM
